The text below walks through data of ChEMBL document CHEMBL5518235, “Identification of Novel Series of Potent and Selective Relaxin Family Peptide Receptor 1 (RXFP1) Agonists” (J Med Chem, 2024).

Molecules are shown by their SMILES. Calls of active or inactive are those of the source. No cut-off for these calls is given here.

Data set [1] deals with T1, Relaxin receptor 1 (Homo sapiens) (UniProt Q9HBX9).
T1 sequence (whole entry): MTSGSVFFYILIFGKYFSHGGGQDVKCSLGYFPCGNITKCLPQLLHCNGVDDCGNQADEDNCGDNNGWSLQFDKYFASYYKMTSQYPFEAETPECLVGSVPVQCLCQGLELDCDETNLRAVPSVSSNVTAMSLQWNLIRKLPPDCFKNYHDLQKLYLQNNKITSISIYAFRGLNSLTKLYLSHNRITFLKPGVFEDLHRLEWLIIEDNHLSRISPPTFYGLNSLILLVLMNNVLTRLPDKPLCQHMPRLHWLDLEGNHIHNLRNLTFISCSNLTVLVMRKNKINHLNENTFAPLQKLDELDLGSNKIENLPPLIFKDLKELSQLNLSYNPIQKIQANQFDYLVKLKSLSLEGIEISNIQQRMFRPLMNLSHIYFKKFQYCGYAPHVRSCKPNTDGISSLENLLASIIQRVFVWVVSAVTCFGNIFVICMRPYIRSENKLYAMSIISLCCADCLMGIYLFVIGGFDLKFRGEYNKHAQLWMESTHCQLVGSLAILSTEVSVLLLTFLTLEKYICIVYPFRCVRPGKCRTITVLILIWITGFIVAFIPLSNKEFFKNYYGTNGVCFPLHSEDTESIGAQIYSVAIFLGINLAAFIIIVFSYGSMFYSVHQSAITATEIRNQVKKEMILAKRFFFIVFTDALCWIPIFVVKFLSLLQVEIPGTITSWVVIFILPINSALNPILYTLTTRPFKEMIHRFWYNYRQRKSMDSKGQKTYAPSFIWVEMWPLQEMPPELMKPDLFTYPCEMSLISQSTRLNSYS
In words: Agonist activity at human RXFP1 expressed in T-Rex-CHO-K1 cells assessed as stimulation of cAMP production at 50 uM incubated for 45 mins by HTRF assay relative to control. It is filed as functional, cell-based. To be noted: filed as agonist. Background: cAMP levels reflect the balance of adenylyl cyclase and phosphodiesterase activity.

The target of data set [2] is T2, Relaxin receptor 1 (Homo sapiens, UniProt Q9HBX9).
T2 sequence (Q9HBX9 whole entry): T1 sequence (whole entry)
Briefly: Agonist activity at human RXFP1 expressed in T-Rex-CHO-K1 cells assessed as stimulation of cAMP production incubated for 45 mins by HTRF assay. In kind it is functional, cell-based.

Data set [3] in a line: Metabolic stability in Han Wistar rat hepatocytes assessed as unbound intrinsic clearance measured per 10^6 cells at 1 uM after 120 mins by LC-MS/MS analysis. In kind it is ADME, cell-based, Hepatocyte. To be noted: 2 h.
The nature of data set [4]: Metabolic stability in Han Wistar rat hepatocytes assessed as intrinsic clearance measured per 10^6 cells at 1 uM after 120 mins by LC-MS/MS analysis. In kind it is ADME, cell-based, Hepatocyte. To be noted: read-out: CLH.
Data set [5] deals with T3, Relaxin receptor 1 (Rattus norvegicus) (UniProt Q6R6I6).
T3 sequence (whole entry): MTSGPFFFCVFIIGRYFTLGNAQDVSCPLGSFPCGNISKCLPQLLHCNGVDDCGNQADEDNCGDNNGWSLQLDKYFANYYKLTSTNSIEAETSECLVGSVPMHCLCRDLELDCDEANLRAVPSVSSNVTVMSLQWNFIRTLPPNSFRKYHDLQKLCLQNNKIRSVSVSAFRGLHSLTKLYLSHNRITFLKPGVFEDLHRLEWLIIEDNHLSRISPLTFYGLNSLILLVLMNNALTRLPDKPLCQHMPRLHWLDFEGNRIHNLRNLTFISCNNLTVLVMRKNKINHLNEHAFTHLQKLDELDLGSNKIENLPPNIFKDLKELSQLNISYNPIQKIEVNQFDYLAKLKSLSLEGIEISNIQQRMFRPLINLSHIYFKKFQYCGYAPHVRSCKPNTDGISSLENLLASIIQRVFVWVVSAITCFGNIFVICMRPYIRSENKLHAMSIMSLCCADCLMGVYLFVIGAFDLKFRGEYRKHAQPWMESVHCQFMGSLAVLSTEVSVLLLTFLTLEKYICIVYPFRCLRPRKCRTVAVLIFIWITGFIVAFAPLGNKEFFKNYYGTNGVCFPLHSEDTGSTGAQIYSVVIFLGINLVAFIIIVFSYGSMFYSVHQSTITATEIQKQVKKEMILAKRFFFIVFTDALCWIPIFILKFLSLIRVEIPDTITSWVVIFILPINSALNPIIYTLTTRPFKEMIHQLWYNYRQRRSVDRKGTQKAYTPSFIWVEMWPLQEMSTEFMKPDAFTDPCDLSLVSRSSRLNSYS
Briefly: Agonist activity at rat RXFP1 expressed in T-Rex-CHO-K1 cells assessed as stimulation of cAMP production by measuring maximal efficacy incubated for 60 mins by HTRF assay relative to control. To be noted: filed as agonist. In kind it is functional, cell-based.

The nature of data set [6]: Protein binding in rat plasma assessed as free fraction at 5 uM incubated for 18 hrs by equilibrium dialysis based LC-MS/MS analysis. It is filed as ADME, cell-free.
The nature of data set [7]: Clearance in Han Wistar rat at 0.76 micromol/kg, iv by LC-MS/MS analysis. In kind it is ADME, organism-based. The settings on record: in vivo, dose 0.76 µmol/kg.
The nature of data set [8]: Volume of distribution at steady state in Han Wistar rat at 0.76 micromol/kg, iv by LC-MS/MS analysis. In kind it is ADME, organism-based. To be noted: in vivo, dose 0.76 µmol/kg, read-out: Vdss.
Data set [9] is described as follows: Lipophilicity, logD of the compound in 1-octanol and phosphate buffer at pH 7.4 incubated for 3 hrs by shake flask method based LC/MS/MS analysis. It is filed as physicochemical. To be noted: 1-octanol/phosphate buffer, pH 7.4.
Data set [10] in a line: Metabolic stability in cryopreserved human hepatocytes assessed as unbound intrinsic clearance measured per 10^6 cells at 1 uM measured after 120 mins by LC-MS/MS analysis. It is filed as ADME, cell-based, Hepatocyte. The settings on record: 2 h.
Data set [11] can be described thus: Half-life in Han Wistar rat at 0.76 micromol/kg, iv by LC-MS/MS analysis. In kind it is ADME, organism-based. To be noted: in vivo, dose 0.76 µmol/kg.
Data set [12] can be described thus: Metabolic stability in cryopreserved human hepatocytes assessed as intrinsic clearance measured per 10^6 cells at 1 uM after 120 mins by LC-MS/MS analysis. It is filed as ADME, cell-based, Hepatocyte.
Data set [13] has as its target T1, Relaxin receptor 1 (Homo sapiens). Briefly: Agonist activity at human RXFP1 expressed in T-Rex-CHO-K1 cells assessed as stimulation of cAMP production by measuring maximal efficacy at 50 uM incubated for 45 mins by HTRF assay relative to control. To be noted: filed as agonist. In kind it is functional, cell-based.
Data set [14] concerns the target T4, Relaxin receptor 1 (Rattus norvegicus, UniProt Q6R6I6).
T4 sequence (Q6R6I6 whole entry): T3 sequence (whole entry)
In words: Agonist activity at rat RXFP1 expressed in T-Rex-CHO-K1 cells assessed as stimulation of cAMP production incubated for 60 mins by HTRF assay. In kind it is functional, cell-based.

A short description of data set [15]: Oral bioavailability in Han Wistar rat at 1.52 micromol/kg by LC-MS/MS analysis. It is filed as ADME, organism-based. To be noted: in vivo, 1.52 µmol/kg.
Data set [16] can be described thus: Unbound Cmax in Sprague-Dawley rat at 3.5 mg/kg, iv administered via bolus followed by 6.0 mg/kg, iv administered via infusion for 3 hrs and measured 1 hrs post washout by LC-MS/MS analysis. It is filed as ADME, organism-based. To be noted: in vivo.
Data set [17] addresses T3, Relaxin receptor 1 (Rattus norvegicus). Briefly: In vivo agonist activity at RXFP1 in Sprague-Dawley rat assessed as hemodynamic effect by measuring increase in heart rate at 3.5 mg/kg, iv administered via bolus followed by 6.0 mg/kg, iv administered via infusion for 3 hrs and measured 1 hrs post washout. In kind it is functional, organism-based.
Data set [18] addresses Voltage-gated inwardly rectifying potassium channel KCNH2 (Homo sapiens, UniProt Q12809). Briefly: Inhibition of human ERG by automated electrophysiology recording. It is filed as toxicity.
Data set [19] in a line: Volume of distribution at steady state in Han Wistar rat at 0.73 micromol/kg, iv by LC-MS/MS analysis. In kind it is ADME, organism-based. To be noted: in vivo, dose 0.73 µmol/kg, read-out: Vdss.
Data set [20] in a line: Metabolic stability in Han Wistar rat hepatocytes assessed as unbound intrinsic clearance measured […] at 1 uM after 120 mins by LC-MS/MS analysis. The settings on record: 2 h. In kind it is ADME, cell-based, Hepatocyte.
A short description of data set [21]: Half-life in Han Wistar rat at 0.73 micromol/kg, iv by LC-MS/MS analysis. It is filed as ADME, organism-based. To be noted: in vivo, dose 0.73 µmol/kg.
Data set [22] deals with T3, Relaxin receptor 1 (Rattus norvegicus). In words: In vivo agonist activity at RXFP1 in Sprague-Dawley rat assessed as hemodynamic effect by measuring increase in blood pressure at 3.5 mg/kg, iv administered via bolus followed by 6.0 mg/kg, iv administered via infusion for 3 hrs and measured 1 hrs post washout. In kind it is functional, organism-based.
The nature of data set [23]: Cytotoxicity against human HepG2 cells cultured under galactose condition assessed as reduction in cell viability. In kind it is toxicity, cell-based.
Data set [24] in a line: Cytotoxicity against human THP-1 cells assessed as reduction of cell viability incubated for 48 hrs by resazurin reduction assay. In kind it is toxicity, cell-based.
Data set [25] can be described thus: Cytotoxicity against human HepG2 cells cultured as C3a spheroids assessed as reduction in cell viability. It is filed as toxicity, cell-based.
Data set [26] is described as follows: Cytotoxicity against human HepG2 cells cultured under glucose condition assessed as reduction in cell viability. It is filed as toxicity, cell-based.
The target in the next data set is Bile salt export pump (Homo sapiens, UniProt O95342). In words: Inhibition of BSEP (unknown origin) by membrane vesicle assay. In kind it is toxicity.
Data set [27] is described as follows: Clearance in Han Wistar rat at 0.73 micromol/kg, iv by LC-MS/MS analysis. It is filed as ADME, organism-based. The settings on record: in vivo, dose 0.73 µmol/kg.

Sequence of Voltage-gated inwardly rectifying potassium channel KCNH2 (Q12809 whole entry): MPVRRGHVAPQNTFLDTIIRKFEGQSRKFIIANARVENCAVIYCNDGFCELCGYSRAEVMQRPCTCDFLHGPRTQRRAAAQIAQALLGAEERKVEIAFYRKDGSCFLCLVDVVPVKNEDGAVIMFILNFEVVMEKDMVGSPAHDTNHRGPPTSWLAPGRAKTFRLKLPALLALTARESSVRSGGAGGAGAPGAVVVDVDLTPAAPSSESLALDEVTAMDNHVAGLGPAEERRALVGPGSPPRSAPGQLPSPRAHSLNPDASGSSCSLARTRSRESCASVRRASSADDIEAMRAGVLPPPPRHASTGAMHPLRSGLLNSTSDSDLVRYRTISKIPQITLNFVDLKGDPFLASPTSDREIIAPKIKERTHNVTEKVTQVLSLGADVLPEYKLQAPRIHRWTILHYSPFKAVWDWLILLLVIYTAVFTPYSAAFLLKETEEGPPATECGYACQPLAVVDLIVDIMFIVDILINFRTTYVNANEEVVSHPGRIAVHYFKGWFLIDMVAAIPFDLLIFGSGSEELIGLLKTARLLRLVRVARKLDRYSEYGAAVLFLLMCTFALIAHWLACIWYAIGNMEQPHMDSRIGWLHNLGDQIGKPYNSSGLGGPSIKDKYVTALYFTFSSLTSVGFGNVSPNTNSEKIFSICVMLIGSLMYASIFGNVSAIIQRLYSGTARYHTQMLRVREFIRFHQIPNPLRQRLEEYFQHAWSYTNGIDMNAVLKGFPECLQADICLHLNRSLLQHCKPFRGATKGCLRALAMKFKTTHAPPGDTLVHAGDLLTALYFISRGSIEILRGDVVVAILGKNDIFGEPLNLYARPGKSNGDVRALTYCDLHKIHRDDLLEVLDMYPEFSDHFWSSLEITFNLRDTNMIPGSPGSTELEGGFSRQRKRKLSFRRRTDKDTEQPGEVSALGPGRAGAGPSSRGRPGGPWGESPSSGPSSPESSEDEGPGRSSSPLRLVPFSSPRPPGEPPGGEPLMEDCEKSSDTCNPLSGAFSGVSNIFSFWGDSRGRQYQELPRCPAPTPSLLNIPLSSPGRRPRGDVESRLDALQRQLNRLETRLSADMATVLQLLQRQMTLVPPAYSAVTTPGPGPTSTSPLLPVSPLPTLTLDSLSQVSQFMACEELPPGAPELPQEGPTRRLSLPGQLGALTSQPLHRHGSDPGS
Sequence of Bile salt export pump (O95342 whole entry): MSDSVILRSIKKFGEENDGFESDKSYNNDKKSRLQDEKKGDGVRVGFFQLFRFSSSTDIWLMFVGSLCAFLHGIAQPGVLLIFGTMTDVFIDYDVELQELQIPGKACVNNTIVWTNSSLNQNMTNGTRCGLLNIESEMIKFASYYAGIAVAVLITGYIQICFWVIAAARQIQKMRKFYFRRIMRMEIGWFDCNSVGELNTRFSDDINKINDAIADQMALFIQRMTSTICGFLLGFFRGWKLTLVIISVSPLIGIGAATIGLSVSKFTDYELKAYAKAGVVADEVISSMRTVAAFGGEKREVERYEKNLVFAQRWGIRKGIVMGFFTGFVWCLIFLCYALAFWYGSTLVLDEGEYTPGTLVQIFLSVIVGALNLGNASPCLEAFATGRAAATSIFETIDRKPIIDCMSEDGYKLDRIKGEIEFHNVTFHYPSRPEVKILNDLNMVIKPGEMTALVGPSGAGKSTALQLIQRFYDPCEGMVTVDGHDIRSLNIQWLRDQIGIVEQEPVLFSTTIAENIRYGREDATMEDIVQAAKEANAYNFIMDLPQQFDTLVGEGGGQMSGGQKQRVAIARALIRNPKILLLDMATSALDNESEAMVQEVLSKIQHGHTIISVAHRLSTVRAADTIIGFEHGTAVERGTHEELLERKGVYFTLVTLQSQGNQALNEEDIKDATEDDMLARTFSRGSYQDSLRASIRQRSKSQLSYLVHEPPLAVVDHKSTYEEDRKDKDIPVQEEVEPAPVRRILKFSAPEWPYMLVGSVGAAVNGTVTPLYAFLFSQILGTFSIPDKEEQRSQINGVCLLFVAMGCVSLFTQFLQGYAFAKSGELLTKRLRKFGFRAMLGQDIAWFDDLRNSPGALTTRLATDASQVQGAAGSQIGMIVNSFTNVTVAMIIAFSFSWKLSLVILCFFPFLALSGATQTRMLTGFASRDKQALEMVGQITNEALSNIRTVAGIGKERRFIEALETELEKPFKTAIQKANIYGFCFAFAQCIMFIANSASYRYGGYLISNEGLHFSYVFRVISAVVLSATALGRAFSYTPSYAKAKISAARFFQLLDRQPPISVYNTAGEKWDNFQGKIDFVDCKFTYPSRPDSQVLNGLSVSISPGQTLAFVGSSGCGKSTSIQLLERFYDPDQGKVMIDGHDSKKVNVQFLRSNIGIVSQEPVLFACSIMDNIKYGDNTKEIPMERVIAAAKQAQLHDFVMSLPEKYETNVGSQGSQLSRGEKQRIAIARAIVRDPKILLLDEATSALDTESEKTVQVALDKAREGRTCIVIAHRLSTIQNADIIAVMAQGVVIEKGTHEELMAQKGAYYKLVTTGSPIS

As for `O=C(O)c1ccc(-c2cc(C(=O)N[C@H]3[C@@H](C(=O)Nc4cccc(S(=O)(=O)C(F)(F)F)c4)[C@@H]4C=C[C@H]3C4)ccc2F)cc1` (racemic), the Activity in data set [1] came out at 57%. Moreover, the EC50 – broadly, the concentration that produces a half-maximal response – on Relaxin receptor 1 [2] was greater than 50.1 µM.

Regarding `COc1cc(F)c(O[C@H]2CC[C@@H](C(=O)O)CC2)cc1C(=O)N[C@@H]1[C@H]2CC[C@H](C2)[C@@H]1C(=O)Nc1cccc(S(=O)(=O)C(F)(F)F)c1`, the CL free amounted to 397 µL/min in data set [3] and 259 µL/min in data set [10]. The EC50 is 0.0398 µM on Relaxin receptor 1 [2] and 10 µM at Relaxin receptor 1 [14]. In addition, the hepatocyte CLint at 1 µM in data set [4] came to 23 µL/min/1e6 cells; in data set [12] (cryopreserved hepatocytes, read-out: CLH) it was 15 µL/min/1e6 cells. Also, the Emax (in general, the size of the effect at its maximum, as opposed to the concentration needed) was found to be 43% in data set [5] and 102% in data set [13]. Further, in data set [6], the fraction unbound (commonly free concentration divided by total concentration) at 18 h, 5 µM is 0.011. Also, the clearance (usually a measure of how efficiently the substance is removed, as volume per time) in data set [7] was determined as 76 mL/min/kg. In addition, the Vd in data set [8] came to 1.7 L/kg. For the same compound, in data set [9], the logD (as a rule, the decadic logarithm of the distribution of all forms, ionised or not, between an organic phase and buffer at a given pH) at 3 h was 3.5. Also, the half-life (usually the time in which the quantity being followed falls by half) in data set [11] is 1.2 h. For the same compound, the bioavailability (usually the share of a dose that reaches the circulation, judged against a reference dose that is usually intravenous) in data set [15] turned out to be 2.6%.

For `COc1cc(F)c(O[C@H]2CC[C@@](C)(C(=O)O)CC2)cc1C(=O)N[C@H]1[C@@H]2CC[C@@H](C2)[C@H]1C(=O)Nc1ccc(F)c(S(F)(F)(F)(F)F)c1`, the fCmax in [16] is listed as 12 nM. The result in data set [17] and in data set [22] was inactive. In addition, the IC50 – broadly, the concentration that gives 50% inhibition – is 33 µM in [18]; 122 µM in data set [23]; 34 µM in data set [25]; 134 µM in data set [26]; 97 µM on Bile salt export pump. The figures for the EC50 on Relaxin receptor 1 [2] and at Relaxin receptor 1 [14] were 3.98 µM and 7.94 µM, respectively. In [4], the hepatocyte CLint at 1 µM was 14 µL/min/1e6 cells. For the same compound, the Emax in data set [5] worked out at 128%; in data set [13] it was 103%. For the same compound, the Vd in data set [19] came out at 1.5 L/kg. In addition, in [6], the fraction unbound at 18 h, 5 µM stood at 0.0013. The CL free in [20] was 2 µL/min; in [10], 7 10^3uL/min. In addition, the half-life in [21] is 2.3 h. Moreover, the IC50 at 48 h in data set [24] was 11 µM. For the same compound, in [9], the logD at 3 h was 4.5. Further, in data set [12] (hepatocytes, 2 h, 1 µM), the CLH worked out at 49 µL/min/1e6 cells. The clearance in [27] stood at 14 mL/min/kg.
